Earlier results, collected in US10398709B2, “Compositions for the treatment of cataracts” (Catacore, Inc., priority 2015, dated 2019).

Tests used:
[1] = system: dissected rabbit cataractous lenses; conditions: dissected rabbit cataractous lenses in vitro
[2] = system: preformed protein aggregates (mutant crystallins); conditions: both in vitro and in cell-transfection experiments
cataract = conditions: in vivo in dogs

Structure (SMILES) | cataract severity and transparency [1] | preformed protein aggregates [2] | cataract severity (cataract)
CC(C)=CCC[C@@H](C)[C@H]1CC[C@@]2(C)C3=C(CC[C@]12C)[C@@]1(C)CC[C@H](O)C(C)(C)[C@@H]1CC3 [lanosterol, 3β-hydroxy-8,24-lanostadiene] | reduce cataract severity and increase transparency | significantly decreased | reduce cataract severity
CC(C)CCC[C@@H](C)[C@H]1CC[C@H]2[C@@H]3CC=C4C[C@@H](O)CC[C@]4(C)[C@H]3CC[C@]12C [cholesterol] |  | not | 
